The record followed here is publication PMC7154053, “Chemical, Metabolic, and Cellular Characterization of a FtsZ Inhibitor Effective Against Burkholderia cenocepacia” (Frontiers in Microbiology, 2020).

The structures appear in SMILES notation. In brackets after ≈: the same amount, converted by molar mass. Like-named read-outs stand apart in the source and are kept apart here.

Series [1] deals with T1, B. cenocepacia nitroreductase BCAL0539 (BcNR) (Burkholderia cenocepacia, UniProt B4E8I2).
T1 sequence (B4E8I2 1-242): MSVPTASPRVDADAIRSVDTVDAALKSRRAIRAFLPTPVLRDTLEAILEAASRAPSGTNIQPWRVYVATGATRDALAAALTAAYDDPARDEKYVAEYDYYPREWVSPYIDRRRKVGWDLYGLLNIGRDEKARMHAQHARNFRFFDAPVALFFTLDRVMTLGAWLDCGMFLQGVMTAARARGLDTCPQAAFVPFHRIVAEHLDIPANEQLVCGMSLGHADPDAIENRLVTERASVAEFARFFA
Kind of series: BcNR nitroreductase steady-state kinetics (NADPH decrease at 340 nm). The series is classed as biochemical. The following applies: compound as substrate of BcNR. The method, then: The reaction mixture typically contained 50 mM potassium phosphate pH 8.0, 50 mM KCl, 5–10 μM BcNR, and reactions were started by adding the substrate. Steady-state kinetics parameters were determined by assaying the enzyme at variable concentrations of substrate (10–500 μM). The experiments were performed in triplicate, and the kinetic constants Km and kcat determined by fitting the data to the Michaelis-Menten equation using Origin 8 software.

The test system of another series is P. aeruginosa PAO1. The series is described as follows: MIC, 2-fold microdilution, resazurin method. The series is classed as cell-based. As to conditions: Pseudomonas aeruginosa, PAO1. The method, then: (§1) Burkholderia cenocepacia strains, Escherichia coli ATCC 25922, Pseudomonas aeruginosa PAO1, and Staphylococcus aureus ATCC 25923 were grown in Luria-Bertani (LB) medium (Difco), if not differently specified, with shaking at 200 rpm, or on LB agar, at 37°C.
(§2) The microtiter plates were incubated at 37°C for 48 (for B. cenocepacia) or 24 h (for all the other strains) and growth was determined by the resazurin method (Martin et al., [2006]). A solution of resazurin sodium salt (Sigma Aldrich) was prepared at 0.01% in distilled water and filter-sterilized. Thirty microliter of resazurin solution were added to each well after 1 or 2 days of incubation at 37°C, and the microtiters were re-incubated at the same temperature for 4 h. The MIC was defined as the lowest concentration of the drug that prevented a change in color from blue to pink, which indicates bacterial growth.
(§3) Three independent biological replicates were used for each MIC determination.

A further series deals with E. coli ATCC 25922. The series is described as follows: MIC, 2-fold microdilution, resazurin method. The following applies: Escherichia coli, ATCC25922. The series is classed as cell-based. The method, then:
as §1, §2, §3

A further series relates to S. aureus ATCC 25923. Kind of series: MIC, 2-fold microdilution, resazurin method. The series is classed as cell-based, Staphylococcus aureus. The following applies: Staphylococcus aureus, ATCC25923. How it is done:
as §1, §2, §3

Series [2] has as its system B. cenocepacia FCF19. The series is described as follows: MIC, 2-fold microdilution, resazurin method. The following applies: Burkholderia cenocepacia; clinical isolate FCF19. The series is classed as cell-based, Burkholderia cenocepacia. The method, then: as §1, §2, §3
The subject of series [3] is B. cenocepacia FCF22. The series is described as follows: MIC, 2-fold microdilution, resazurin method. The series is classed as cell-based, Burkholderia cenocepacia. The following applies: Burkholderia cenocepacia; clinical isolate FCF22. How it is done: as §1, §2, §3
For another series, the system named is B. cenocepacia J2315. Kind of series: MIC, 2-fold microdilution, resazurin method. The series is classed as cell-based, Burkholderia cenocepacia. The following applies: for MIC: Burkholderia cenocepacia, J2315; for activity compared with C109, in words: SAR statements, against both bacteria and the purified enzyme. How it is done:
as §1, §2, §3

The subject of series [4] is CF bronchial epithelial (CFBE41o-) cell line. Kind of series: Toxicity by MTT assay. As to conditions: CFBE41o- cells, data not shown. The series is classed as cell-based.
Series [5] has as its target Burkholderia cenocepacia purified FtsZ protein (Burkholderia cenocepacia, UniProt B4E5Y7). The series is described as follows: biochemical. The series is classed as biochemical. As to conditions: for Inhibition of Bc FtsZ At 100 μM: 100 μM compound; for Inhibition of Bc FtsZ At 100 μM / Inhibits B. cenocepacia FtsZ GTPase at 100µM?: Yes/No; for Inhibits B. cenocepacia FtsZ GTPase at 100µM?: Supplementary Table 1. How it is done:
All the recombinant FtsZ proteins were expressed at 20°C overnight in E. coli BL21(DE3) cells, upon induction with 0.5 mM IPTG, and purified using the same protocol assessed for the wild-type B. cenocepacia FtsZ (Hogan et al., [2018]).
GTPase enzyme activity was determined using a pyruvate kinase/L-lactic dehydrogenase (PK/LDH) spectrophotometric coupled assay (Ingerman and Nunnari, [2005]). The assays were performed at 30°C, in a reaction mixture containing […] Hepes pH 7.5, 5 mM MgCl2, 5 mM KCl, 10 U PK/LDH, 0.25 mM NADH, 0.25 mM PEP, and 5–10 μM FtsZ, and initiated by the addition of 0.5 mM GTP. Alternatively, GTPase activity was determined by measuring the release of phosphate using the malachite green assay (Baykov et al., [1988]).
(1) A[I]=A[0]×(1-[I]/[I]+IC50)
where A[I] is the enzyme activity at inhibitor concentration [I] and A[0] is the enzyme activity without inhibitor.

In a further series the test system is P. aeruginosa. The series is described as follows: Checkerboard assay with efflux pump inhibitor PaβN MC-207.110. The series is classed as cell-based, Pseudomonas aeruginosa. The following applies: Pseudomonas aeruginosa; read-out: MIC in the presence of MC-207.110, P. aeruginosa. The method, then:
as §2, with “growth. […] Three independent biological replicates were used for each MIC determination.” for “growth.”

In series [6] the test system is B. cenocepacia FCF19. The description is as above. The series is classed as cell-based, Burkholderia cenocepacia. The following applies: checkerboard, MC-207.110 0–128 μg/ml; C109 value at 128 μg/ml. How it is done:
as §2, with “growth. […] Three independent biological replicates were used for each MIC determination.” for “growth.”

In series [7] the test system is B. cenocepacia FCF22. The series is described as above. The series is classed as cell-based, Burkholderia cenocepacia. As to conditions: checkerboard, MC-207.110 0–128 μg/ml; C109 value at 128 μg/ml. The method, then:
as §2, with “growth. […] Three independent biological replicates were used for each MIC determination.” for “growth.”

For another series, the system named is B. cenocepacia. The series is described as follows: Resazurin-based assay of BcNR reaction mixtures. As to conditions: BcNR reactions with 1 mM C109, with or without NADPH; C109 result: in the absence of NADPH. The series is classed as cell-based, Burkholderia cenocepacia. The source says:
To assess whether the resulting BcNR reduction product could inhibit B. cenocepacia growth, we carried out a resazurin-based assay.

The mark [8] stands for this setting: LB, 24 h, read-out: MIC E. coli 25922.
The mark [9] stands for this setting: Supplementary Table 1, read-out: MIC (µg/ml) E. coli 25922.
[10] abbreviates: LB, 24 h, read-out: MIC S. aureus 25923.
[11] abbreviates: Supplementary Table 1, read-out: MIC (µg/ml) S. aureus 25923.
[12] abbreviates: LB, 48 h, read-out: MIC B. cenocepacia J2315.
The mark [13] stands for this setting: Supplementary Table 1, read-out: MIC (µg/ml) B. cenocepacia J2315.

Sequence of Burkholderia cenocepacia purified FtsZ protein (B4E5Y7 entry or part of it): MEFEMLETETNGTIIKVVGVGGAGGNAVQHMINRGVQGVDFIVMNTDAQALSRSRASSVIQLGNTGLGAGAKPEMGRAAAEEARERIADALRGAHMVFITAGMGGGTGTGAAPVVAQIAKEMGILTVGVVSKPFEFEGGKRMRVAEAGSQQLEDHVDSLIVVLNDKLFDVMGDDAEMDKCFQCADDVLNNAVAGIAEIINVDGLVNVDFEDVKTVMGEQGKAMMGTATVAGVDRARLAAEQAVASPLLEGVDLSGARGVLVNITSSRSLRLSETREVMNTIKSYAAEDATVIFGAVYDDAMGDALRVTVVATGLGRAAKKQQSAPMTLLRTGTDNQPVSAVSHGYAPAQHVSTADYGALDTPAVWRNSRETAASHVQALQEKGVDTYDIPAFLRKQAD

With `O=C(O)c1ccc([N+](=O)[O-])cc1` [4-nitrobenzoic acid], the “Vmax (Figure 3)” value in series [1] stood at 17.5 ± 1.4 s⁻¹.
On to `CCOC(=O)CSc1ccc2nsnc2c1[N+](=O)[O-]` [compound 11426142], for which the melting point was in the range of 172 to 174 °C. The MIC in the series with P. aeruginosa PAO1 (LB, 24 h, read-out: MIC P. aeruginosa PAO1) amounted to 32 µg/mL (≈ 107 µM). For the same molecule, the MIC in the series with P. aeruginosa PAO1 (Supplementary Table 1, read-out: MIC (µg/ml) P. aeruginosa PAO1) was found to be 32 µg/mL (≈ 107 µM). Besides, the MIC with E. coli ATCC 25922 (setting [8]) turned out to be 8 µg/mL (≈ 26.7 µM). For the same molecule, in the series with E. coli ATCC 25922 (setting [9]), the MIC was 8 µg/mL (≈ 26.7 µM). Besides, the MIC in the series with S. aureus ATCC 25923 (setting [10]) was 4 µg/mL (≈ 13.4 µM). In addition, in the series on S. aureus ATCC 25923 (setting [11]), the MIC amounted to 4 µg/mL (≈ 13.4 µM). In addition, the MIC in the series with B. cenocepacia FCF19 [2] is 32 µg/mL (≈ 107 µM). For the same molecule, the MIC in the series with B. cenocepacia FCF22 [3] stood at 32 µg/mL (≈ 107 µM). In addition, the MIC in the series on B. cenocepacia J2315 (setting [12]) is 32 µg/mL (≈ 107 µM). Besides, the MIC with B. cenocepacia J2315 (setting [13]) was 32 µg/mL (≈ 107 µM). The “activity compared with C109, in words” value in the series with B. cenocepacia J2315 is “partially lost activity”. The “toxic concentration at 50% (TC50)” value in [4] is 50 µM. For the same molecule, in series [5], the IC50 is 21 µM, the “Inhibition of Bc FtsZ At 100 μM” value was “Yes” and the “Inhibits B. cenocepacia FtsZ GTPase at 100µM?” value is listed as “Yes”. The MIC in the series with P. aeruginosa stood at 2 µg/mL. The “MIC in the presence of MC-207.110, FCF19” value in the series with B. cenocepacia FCF19 [6] was “did not change”. For the same molecule, the “MIC in the presence of MC-207.110, FCF22” value in the series with B. cenocepacia FCF22 [7] is on record as “did not change”.
Take `O=C1CSc2ccc3nsnc3c2N1` [compound 11626109, 7H-[1,2,5]thiadiazolo[3,4-f][1,4]benzothiazin-8(9H)-one]: the melting point lay within 211 to 213 °C. Also, the MIC in the series on E. coli ATCC 25922 (setting [8]) was greater than 512 µg/mL. Besides, the MIC in the series with E. coli ATCC 25922 (setting [9]) was greater than 512 µg/mL. Moreover, in the series on S. aureus ATCC 25923 (setting [10]), the MIC is greater than 512 µg/mL. Besides, the MIC in the series with S. aureus ATCC 25923 (setting [11]) is greater than 512 µg/mL. For the same molecule, the MIC in the series with B. cenocepacia J2315 (setting [12]) was determined as 512 µg/mL (≈ 2290 µM). Also, the MIC in the series with B. cenocepacia J2315 (setting [13]) was 512 µg/mL (≈ 2290 µM). The “activity compared with C109, in words” value with B. cenocepacia J2315 is “loss of activity”. Also, in the series with B. cenocepacia, the “activity against B. cenocepacia growth” value is reported as “not active”. Besides, in series [5], the “Inhibition of Bc FtsZ At 100 μM” value is “No” and the “Inhibits B. cenocepacia FtsZ GTPase at 100µM?” value is listed as “No”.
